Assay results as given in ChEMBL document CHEMBL1949588, “Synthesis of [¹¹C]uric acid, using [¹¹C]phosgene, as a possible biomarker in PET imaging for diagnosis of gout” (Bioorg Med Chem Lett, 2012).

Legend:
[1] = Drug uptake in potassium oxonate treated Sprague-Dawley rat hyperuricemic model limb at 22 to 30 MBq, iv after 65 to 70 mins by PET analysis; assay type: ADME, organism-based; settings: in vivo
Blood [2] = test: Ratio of drug uptake in potassium oxonate treated Sprague-Dawley rat hyperuricemic model blood at 22 to 30 MBq, iv after 65 to 70 mins to drug uptake in normal rat; assay type: ADME, organism-based; settings: in vivo
Rattus norvegicus = test: Ratio of drug uptake in potassium oxonate treated Sprague-Dawley rat hyperuricemic model at 22 to 30 MBq, iv after 60 mins to drug uptake in normal rat; assay type: ADME, organism-based; settings: in vivo, 1 h
Blood [3] = test: Metabolic stability in Sprague-Dawley rat blood assessed as formation of [11C][…] metabolite at 22 to 30 MBq, iv after 30 mins by radiometric HPLC analysis; assay type: ADME, organism-based; settings: in vivo, 0.5 h
[4] = Metabolic stability in potassium oxonate treated Sprague-Dawley rat hyperuricemic model blood assessed as compound remaining at 22 to 30 MBq, iv after 30 mins by radiometric HPLC analysis; assay type: ADME, organism-based; settings: read-out: Stability
Blood [5] = test: Drug uptake in potassium oxonate treated Sprague-Dawley rat hyperuricemic model blood at 22 to 30 MBq, iv after 60 mins by gamma counting; settings: in vivo, 1 h

Drug uptake [1]: Active
Ratio (Blood [2]): 1.6
Ratio (Rattus norvegicus): 1.7
Stability (Blood [3]): Unstable
remaining at 0.5 h [4]: 100%
Drug uptake (Blood [5]): 0.57 %ID
SMILES: O=c1[nH]c(=O)c2[nH][11c](=O)[nH]c2[nH]1
